US10781224B2, “Bis(oxymethyl)phosphinic acid and biogenic metal salts thereof as regulators of plant growth and development” (priority 2016, dated 2020)

Experiments:
[1] = test system: corn (Krasnodar 385 MV variety); assay: Corn seed treatment with BHMPA salts: germination energy and germination rate; assay type: in vivo
Method: Control—Soaking Seeds in Water;
(§1) Experimental versions—soaking seeds in BHMPA solutions and solutions of BHMPA Ca, Mg, Na, Co, Mn, Cu, and Zn salts at 1·10^−6-1·10^−12% concentrations (doses). The studies were conducted in laboratory in Petri dishes; seed bed—two layers of filter paper. 50 seeds soaked in water (control) and in the solutions of the tested compounds (experimental) were placed into each dish. Wheat, corn, and rice seeds were exposed for one hour.
Analysis was conducted according to the government standards GOST 12038-84 “Crop seeds. Technical conditions for determining the germination energy and germination rate”, GOST 12044-93 “Crop seeds. Methods for determining disease contamination.”
(§2) Seed germination energy and rate were calculated in percent as an arithmetic mean of the four experimental results (germination energy on the 4th day, wheat germination on the 8th day, rice and corn germination—on the 7th day). Germination was determined based on the germinating power indicators (length of the roots and sprouts and their wet and dry mass per 100 shoots).
(§3) The effect of pre-sowing seed treatment with the claimed BHMPA salts of biogenic metals was studied on winter wheat (Vershin variety), corn (Krasnodar 385 MV variety), and rice (Diamant variety).

[2] = test system: corn (Krasnodar 385 MV variety); assay: Corn seed treatment with BHMPA salts: germinating power; assay type: in vivo; settings: for Length, root / Length, root, + % to control / Length, sprout / Length, sprout, + % to control / Mass, dry, root / Mass, dry, root, + % to control / Mass, dry, sprout / Mass, dry, sprout, + % to control / Mass, wet, root / Mass, wet, root, + % to control / Mass, wet, sprout / Mass, wet, sprout, + % to control: corn seeds, cobalt salt of BHMPA
Method: as §1, §2, §3
The above data describe the seed viability only at the initial stage of germination, while the germination ability at the later stage of germination is defined by the initial germinating power. The method for the determination of the germinating power comprises measuring the height of the sprouts and primary roots, as well as the biomass and the dry mass thereof per 100 seedlings. [M. A. Kartuzova. Initial Germinating Power as Method of Biological Assessment of Seed Quality. Selection and Seed Farming, #2, 1953].

[3] = comparative study vs Melaphen, 1·10^−7% solution
[4] = solution concentration 1 · 10^−6%
[5] = solution concentration 1 · 10^−7%
[6] = solution concentration 1 · 10^−8%
[7] = solution concentration 1 · 10^−9%

O.O.O=P([O-])(CO)CO.O=P([O-])(CO)CO.[Co+2] [Co-salt, Cobalt BHMPA Salt]
Germination energy ([1]; 1·10^−6% solution): 80.0%
Germination rate ([1]; 1·10^−6% solution): 82.2%
Germination energy ([1]; 1·10^−7% solution): 84.3%
Germination rate ([1]; 1·10^−7% solution): 90.0%
Germination rate ([1]; 1·10^−7% solution, listed as Co): 86.7%
Germination energy ([1]; 1·10^−8% solution): 82.0%
Germination rate ([1]; 1·10^−8% solution): 84.7%
Germination energy ([1]; 1·10^−9% solution): 80.7%
Germination rate ([1]; 1·10^−9% solution): 83.0%
Germination energy ([1]; 1·10^−10% solution): 79.2%
Germination rate ([1]; 1·10^−10% solution): 81.7%
Germination energy ([1]; 1·10^−11% solution): 78.0%
Germination rate ([1]; 1·10^−11% solution): 80.8%
Germination energy ([1]; 1·10^−12% solution): 76.8%
Germination rate ([1]; 1·10^−12% solution): 79.2%
Germination energy [1, 3]: 87.0%
Germination rate [1, 3]: 96.7%
optimum concentration for treating corn seeds before sowing ([2]; corn): 1·10^−7%
Length, root [2, 4]: 5.0 cm
Length, root, + % to control [2, 4]: 6%
Length, sprout [2, 4]: 3.2 cm
Length, sprout, + % to control [2, 4]: 7%
Mass, dry, root [2, 4]: 1.31 g/100 plantlings
Mass, dry, root, + % to control [2, 4]: 5%
Mass, dry, sprout [2, 4]: 1.09 g/100 plantlings
Mass, dry, sprout, + % to control [2, 4]: 12%
Mass, wet, root [2, 4]: 9.76 g/100 plantlings
Mass, wet, root, + % to control [2, 4]: 9%
Mass, wet, sprout [2, 4]: 7.75 g/100 plantlings
Mass, wet, sprout, + % to control [2, 4]: 24.5%
Length, root [2, 5]: 6.2 cm
Length, root, + % to control [2, 5]: 32%
Length, sprout [2, 5]: 3.8 cm
Length, sprout, + % to control [2, 5]: 27%
Mass, dry, root [2, 5]: 1.44 g/100 plantlings
Mass, dry, sprout [2, 5]: 1.21 g/100 plantlings
Mass, dry, sprout, + % to control [2, 5]: 25%
Mass, wet, root [2, 5]: 10.77 g/100 plantlings
Mass, wet, root, + % to control [2, 5]: 20%
Mass, wet, sprout [2, 5]: 9.96 g/100 plantlings
Mass, wet, sprout, + % to control [2, 5]: 60%
Length, root [2, 6]: 5.6 cm
Length, root, + % to control [2, 6]: 19%
Length, sprout [2, 6]: 3.6 cm
Length, sprout, + % to control [2, 6]: 20%
Mass, dry, root [2, 6]: 1.37 g/100 plantlings
Mass, dry, root, + % to control [2, 6]: 10%
Mass, dry, sprout [2, 6]: 1.14 g/100 plantlings
Mass, dry, sprout, + % to control [2, 6]: 17.5%
Mass, wet, root [2, 6]: 10.17 g/100 plantlings
Mass, wet, root, + % to control [2, 6]: 13%
Mass, wet, sprout [2, 6]: 9.00 g/100 plantlings
Mass, wet, sprout, + % to control [2, 6]: 45%
Length, root [2, 7]: 5.0 cm
Length, root, + % to control [2, 7]: 6%
Length, sprout [2, 7]: 3.5 cm
Length, sprout, + % to control [2, 7]: 17%
Mass, dry, root [2, 7]: 1.31 g/100 plantlings
Mass, dry, root, + % to control [2, 7]: 5%
Mass, dry, sprout [2, 7]: 1.07 g/100 plantlings
Mass, dry, sprout, + % to control [2, 7]: 10%
Mass, wet, root [2, 7]: 10.00 g/100 plantlings
Mass, wet, root, + % to control [2, 7]: 11%
